molecular target: T1, Autotaxin (Homo sapiens, UniProt Q13822); assay: Inhibition of autotoxin assessed as choline release from LPC using lysophosphatidylcholine as substrate

Structure (SMILES) | Ki
CCCCCCCCCCCCCC(=O)Nc1ccc(CP(=O)(O)O)cc1 | 0.367 µM
O=C(O)c1cccc(/C=C2\SC(=O)N(Cc3ccc(F)cc3)C2=O)c1 | 0.187 µM
CCCCCCCCCCCCCCCCCC(=O)OC[C@@H](O)CC(Br)P(=O)(O)O (stereo not given in full) | 40.1 µM
O=C1S/C(=C\c2cccc(B(O)O)c2)C(=O)N1Cc1ccc(F)cc1 | 0.094 µM

molecular target: T1, Autotaxin; assay: Inhibition of autotoxin assessed as choline production after 60 to 180 mins using lysophosphatidylcholine as a substrate by colorimetric method

Structure (SMILES) | Ki
CCCCCCCCCCCCCCCC(=O)N[C@@H](Cc1ccc(OCc2cc(C)c(OC)c(C)c2)cc1)[C@H](O)CP(=O)(O)O | 5.3 µM
CCCCCCCCCCCCCCCC(=O)N[C@@H](Cc1ccc(OCc2ccc(OC)c(C)c2)cc1)[C@@H](O)CP(=O)(O)O | 4.3 µM
CCCCCCCCCCCCCCCC(=O)N[C@@H](Cc1ccc(OCc2ncc(C)cc2C)cc1)[C@@H](O)CP(=O)(O)O | 3.9 µM
CCCCCCCCCCCCCCCC(=O)N[C@@H](Cc1ccc(OCc2ccccc2)cc1)[C@@H](O)CP(=O)(O)O | 27 µM
CCCCCCCCCCCCCCCC(=O)N[C@@H](Cc1ccc(OCc2ccc(Cl)cc2Cl)cc1)[C@@H](O)CP(=O)(O)O | 584 µM
CCCCCCCCCCCCCCCC(=O)N[C@@H](Cc1ccc(OCc2ncc(C)c(OC)c2C)cc1)[C@@H](O)CP(=O)(O)O | 1 µM
CCCCCCCCCCCCCCCC(=O)N[C@@H](Cc1ccc(OCc2ccc(OC)c(C)c2)cc1)[C@H](O)CP(=O)(O)O | 26.5 µM
CCCCCCCCCCCCCCCC(=O)N[C@@H](Cc1ccc(OCc2ncc(C)c(OCC)c2C)cc1)[C@H](O)CP(=O)(O)O | 6.2 µM
CCCCCCCCCCCCCCCC(=O)N[C@@H](Cc1ccc(OCc2cc(OCC(F)(F)F)ccn2)cc1)[C@@H](O)CP(=O)(O)O | 11.6 µM
CCCCCCCCCCCCCCCC(=O)N[C@@H](Cc1ccc(OCc2ncc(C)c(OC(C)C)c2C)cc1)[C@@H](O)CP(=O)(O)O | 8.8 µM
CCCCCCCCCCCCCCCC(=O)N[C@@H](Cc1ccc(OCc2cc(OCC(F)(F)F)ccn2)cc1)[C@H](O)CP(=O)(O)O | 22.5 µM
CCCCCCCCCCCCCCCC(=O)N[C@@H](Cc1ccc(OCc2ncc(C)c(OCC)c2C)cc1)[C@@H](O)CP(=O)(O)O | 4.7 µM
CCCCCCCCCCCCCCCC(=O)N[C@@H](Cc1ccc(OCc2ccc(Cl)cc2Cl)cc1)[C@H](O)CP(=O)(O)O | 1060 µM
CCCCCCCCCCCCCCCC(=O)N[C@@H](Cc1ccc(OCc2ccccc2)cc1)[C@H](O)CP(=O)(O)O | 83 µM
CCCCCCCCCCCCCCCC(=O)N[C@@H](Cc1ccc(OCc2ncc(C)c(OC)c2C)cc1)[C@H](O)CP(=O)(O)O | 3.9 µM
CCCCCCCCCCCCCCCC(=O)N[C@@H](Cc1ccc(OCc2cc(OC)ccn2)cc1)[C@@H](O)CP(=O)(O)O | 1.5 µM
CCCCCCCCCCCCCCCC(=O)N[C@@H](Cc1ccc(OCc2cc(C)c(OC)c(C)c2)cc1)[C@@H](O)CP(=O)(O)O | 1.6 µM
CCCCCCCCCCCCCCCC(=O)N[C@@H](Cc1ccc(OCc2ccccn2)cc1)[C@H](O)CP(=O)(O)O | 11 µM
CCCCCCCCCCCCCCCC(=O)N[C@@H](Cc1ccc(OCc2ccc(C)cc2C)cc1)[C@@H](O)CP(=O)(O)O | 1.8 µM
CCCCCCCCCCCCCCCC(=O)N[C@@H](Cc1ccc(OCc2cc(OC)ccn2)cc1)[C@H](O)CP(=O)(O)O | 3.5 µM
CCCCCCCCCCCCCCCC(=O)N[C@@H](Cc1ccc(OCc2ncc(C)c(OC(C)C)c2C)cc1)[C@H](O)CP(=O)(O)O | 11.1 µM
CCCCCCCCCCCCCCCC(=O)N[C@@H](Cc1ccc(OCc2ncc(C)cc2C)cc1)[C@H](O)CP(=O)(O)O | 399 µM
CCCCCCCCCCCCCCCC(=O)N[C@@H](Cc1ccc(OCc2ccccn2)cc1)[C@@H](O)CP(=O)(O)O | 4.4 µM
CCCCCCCCCCCCCCCC(=O)N[C@@H](Cc1ccc(OCc2ccc(C)cc2C)cc1)[C@H](O)CP(=O)(O)O | 4.8 µM
CCCCCCCCCCCCCCCC(=O)N[C@@H](Cc1ccc(OCc2cc(C)cc(C)c2)cc1)[C@H](O)CP(=O)(O)O | 217 µM
CCCCCCCCCCCCCCCC(=O)N[C@@H](Cc1ccc(OCc2cc(C)cc(C)c2)cc1)[C@@H](O)CP(=O)(O)O | 88.9 µM

— ChEMBL document CHEMBL1629508, “Synthesis and structure-activity relationships of tyrosine-based inhibitors of autotaxin (ATX)” (Bioorg Med Chem Lett, 2010)
